Reference: article PMC6438725 (Arthritis & rheumatology (Hoboken, N.J.), 2019)
“And” between values parts separate entries of the source, which are not always exact repeats. Equal entries are not always repeated. Non-standard residues stand in square brackets, D forms with d. Residues, ends and D or L forms follow the SMILES beside them. No end group written: not given here. Cit = NC(=O)NCCC[C@H](N)C(=O)O

Target: DR0401 (HLA-DRB1*04:01) (Homo sapiens, UniProt P01903+P01911, A100K/A169T/F76Y/I96L/K127E/L162R/M171V/N62H/P40V/Q125Y/R42H/S133A/S149N/S66Y/V115G/V209L/W38E)
Experiment: Peptide binding to DR0401
Conditions: not given

| Molecule | EC50 |
| --- | --- |
| CC[C@H](C)[C@H](NC(=O)[C@@H](NC(=O)[C@H](CCCNC(N)=O)NC(=O)[C@H](CC(C)C)NC(=O)[C@@H](NC(=O)[C@@H](NC(=O)[C@H](Cc1ccccc1)NC(=O)[C@@H](NC(=O)[C@H](Cc1c[nH]c2ccccc12)NC(=O)[C@H](CC(C)C)NC(=O)[C@H](CC(C)C)NC(=O)[C@@H](N)[C@@H](C)O)C(C)C)C(C)C)[C@@H](C)O)C(C)C)C(=O)N[C@H](C(=O)N[C@@H](C)C(=O)N[C@@H](C)C(=O)N[C@H](C(=O)N[C@H](C(=O)N[C@H](C(=O)O)C(C)C)[C@@H](C)O)C(C)C)[C@@H](C)O [agg 3-20] (H-TLLWVFVTL[Cit]VITAAVTV-OH) | 35.3 µM and 36.1 µM |
| CC[C@H](C)[C@H](NC(=O)[C@@H]1CCCN1C(=O)[C@H](Cc1ccc(O)cc1)NC(=O)[C@H](CCCNC(N)=O)NC(=O)[C@@H](NC(=O)[C@H](CO)NC(=O)[C@H](CCCNC(N)=O)NC(=O)[C@H](CC(=O)O)NC(=O)[C@H](C)NC(=O)[C@H](CC(C)C)NC(=O)[C@H](Cc1c[nH]c2ccccc12)NC(=O)CNC(=O)[C@H](C)NC(=O)[C@@H](N)CO)C(C)C)C(=O)N[C@@H](CO)C(=O)N[C@@H](CCCCN)C(=O)O [agg 298-313] (H-SAGWLAD[Cit]SV[Cit]YPISK-OH) | 1.9 µM and 2.94 µM |
| CC(C)C[C@H](NC(=O)[C@H](CO)NC(=O)[C@H](Cc1ccc(O)cc1)NC(=O)[C@H](CCCNC(N)=O)NC(=O)[C@@H](NC(=O)[C@@H]1CCCN1C(=O)CNC(=O)[C@@H]1CCCN1C(=O)[C@H](CCCNC(N)=O)NC(=O)[C@H](Cc1ccc(O)cc1)NC(=O)[C@H](Cc1c[nH]cn1)NC(=O)[C@H](Cc1ccccc1)NC(=O)[C@@H](NC(=O)[C@@H](NC(=O)CN)C(C)C)C(C)C)[C@@H](C)O)C(=O)N[C@H](C(=O)N[C@@H](Cc1ccccc1)C(=O)O)[C@@H](C)O [agg 477] (H-GVVFHY[Cit]PGPT[Cit]YSLTF-OH) | 14.7 µM and > 100 µM |
| CC(C)C[C@H](NC(=O)[C@H](CCCNC(N)=O)NC(=O)[C@H](CC(=O)O)NC(=O)[C@@H](NC(=O)[C@H](Cc1ccccc1)NC(=O)[C@H](CS)NC(=O)[C@H](Cc1ccc(O)cc1)NC(=O)[C@@H](NC(=O)[C@@H](N)CC(=O)O)C(C)C)C(C)C)C(=O)N[C@@H](CCC(=O)O)C(=O)NCC(=O)N[C@@H](CCC(=O)O)C(=O)N[C@H](C(=O)N[C@@H](Cc1ccccc1)C(=O)N[C@@H](Cc1ccccc1)C(=O)N[C@@H](C)C(=O)O)C(C)C [agg 568] (H-DVYCFVD[Cit]LEGEVFFA-OH) | 23.4 µM and 3.06 µM |
| CC(C)C[C@H](NC(=O)[C@H](CCCNC(N)=O)NC(=O)[C@@H](NC(=O)[C@H](C)NC(=O)[C@H](Cc1ccccc1)NC(=O)[C@H](Cc1ccccc1)NC(=O)[C@@H](NC(=O)[C@@H](N)CCC(=O)O)C(C)C)[C@@H](C)O)C(=O)N[C@@H](CCC(=O)O)C(=O)N[C@@H](CCC(N)=O)C(=O)N[C@@H](Cc1ccccc1)C(=O)N[C@H](C(=O)N[C@@H](Cc1ccccc1)C(=O)N[C@@H](CCC(N)=O)C(=O)N[C@@H](CCC(=O)O)C(=O)O)[C@@H](C)O [agg 579] (H-EVFFAT[Cit]LEQFTFQE-OH) | 78.4 µM and 15.3 µM |
| CC[C@H](C)[C@H](NC(=O)[C@@H]1CCCN1C(=O)[C@H](Cc1ccc(O)cc1)NC(=O)[C@H](CCCNC(N)=O)NC(=O)[C@H](CC(C)C)NC(=O)[C@H](CO)NC(=O)CNC(=O)[C@H](CC(=O)O)NC(=O)[C@H](C)NC(=O)[C@H](CC(C)C)NC(=O)[C@H](Cc1c[nH]c2ccccc12)NC(=O)CNC(=O)[C@H](C)NC(=O)[C@H](Cc1ccc(O)cc1)NC(=O)[C@H](CS)NC(=O)[C@@H](N)CCCCN)C(=O)N[C@H](C(=O)O)C(C)C [agg 621] (H-KCYAGWLADGSL[Cit]YPIV-OH) | 6.9 µM and 4.66 µM |
| CC(C)C[C@H](NC(=O)[C@H](CS)NC(=O)[C@H](Cc1ccccc1)NC(=O)[C@@H]1CCCN1C(=O)[C@H](CO)NC(=O)[C@@H](N)CC(N)=O)C(=O)N[C@@H](CCC(=O)O)C(=O)N[C@@H](CCCNC(N)=O)C(=O)N[C@H](C(=O)N1CCC[C@H]1C(=O)N[C@@H](CC(C)C)C(=O)NCC(=O)N[C@@H](CO)C(=O)N1CCC[C@H]1C(=O)N[C@@H](CC(=O)O)C(=O)N1CCC[C@H]1C(=O)N[C@@H](C)C(=O)O)[C@@H](C)O [agg 684] (H-NSPFCLE[Cit]TPLGSPDPA-OH) | 0.12 µM and 0.13 µM |

Same assay, conditions: data not shown

| Molecule | Binding to DR0401 (in words) |
| --- | --- |
| VVLLVATEG[Cit]VRVNSAYQDK [cit-Agg84, reference compound] | very low affinity |
